Measurements: patent publication US11578013B2, “Nitrification inhibitors” (Lincoln University, priority 2020, dated 2023)
Values after ≈ are worked out from the molar mass of the structure shown.

Experiments:
nitrification = assay: Table 1 summary: compounds found to work or not work as nitrification inhibitors, Inhib(%); set-up: concentration or dose not given beside the values; conditions: test and rate not given
Method: (§1) The phenotypic screening involved assessing the nitrification inhibition potency of the selected 5000 compounds against a key ammonia oxidizing bacterium responsible for ammonia oxidation in the soil, Nitrosomonas europaea, in 96-well microtiter plates. N. europaea cells were grown in the presence of an ammonium source, and the potential of putative nitrification inhibitors to inhibit the production of nitrite (NO2) was measured relative to untreated cells.
A summary of selected compounds initially found to either work or not work as nitrification inhibitors is detailed in Table 1 below.

Nitrosomonas europaea = assay: In vitro screening of nitrite production by Nitrosomonas europaea; type: cell-based
Method: as §1, with “cells. […] Study 1-14” for “cells.”

[1] = system: nitrification in the soil; assay: Soil column study with static gas chambers (Study 2-14): nitrate-N and N2O emissions
Method: To determine the effect of treating the soil with 4-Ethynylanisole on nitrification rate and nitrous oxide emissions, soil column studies with static gas chambers were conducted. The experiment was conducted in cylindrical PVC containers (Diameter=186 mm, Height=240 mm). The containers were filled with soil to half of the container's height (120 mm), leaving 120 mm headspace. The soil was Templeton sandy loam collected from Lincoln University Research Dairy Farm. It was screened using a 5 mm sieve and air-dried to the required moisture level and packed to bulk density of 1 g/cm3.
The experiment was conducted under controlled conditions. The temperature of the soil columns were maintained at around 12° C. by using a water bath to control the temperature.
The treatments included Control (Water), Control (animal urine), Control (urine+DMSO), Control (urine+DCD at 10 kg/ha) and urine+4-Ethynylanisole (10 kg/ha) in DMSO. Synthetic cow urine was applied at 700 kg N/ha (comprising about 87% urea-N and 13% glycine-N), and 4-Ethynylanisole was applied at 10 kg/ha. There were two sets of cores for each treatment, one set were fitted with static gas chambers with removable lids for nitrous oxide sampling, and the other set used for soil sampling. The urine was sprayed to the surface of the soil simulating urine deposition by a grazing animal; DMSO, or DCD or 4-Ethynylanisole mixed with DMSO was also sprayed onto the urine treated soils to simulate the treatment of urine patches. Nitrous oxide gas measurements followed these treatments—as is detailed further below.
For the soil columns that were set up for taking soil samples for analysis of mineral nitrogen, the different treatments were mixed with the soil for soil sampling. Soil moisture was adjusted to 100% field capacity (FC) and maintained between 80 and 100% FC over the duration of the experiment.
Nitrous oxide (N2O) gas sampling was conducted twice a week using the standard procedure (Di et al., 2007). Vials were evacuated prior to sampling. Three gas samples were taken with 20 minute intervals between each sampling. Sampling frequency was reduced to once a week when N2O fluxes decreased in intensity.
Soil sampling was conducted on Day 1, 7, 14, 30, and 60. The soil samples were analysed for mineral nitrogen.

IC50 (Nitrosomonas europaea; Nitrosomonas europaea, read-out: IC50 (nitrite production reduced by half)): 2400 nM | MIC (Nitrosomonas europaea; Nitrosomonas europaea, read-out: Minimum Inhibitory Concentration (MIC) of nitrite production): 25 to 50 µM (≈ 3.3 to 6.61 µg/mL)
Structure (SMILES): C#Cc1ccc(OC)cc1 [4-Ethynylanisole, 1-ethynyl-4-methoxybenzene]
Inhib(%) (nitrification): 100% | rate of nitrite production (OD519 nm) (Nitrosomonas europaea; 1.56 μM to 400 μM): significantly reduced | N2O—N emissions lower than urine alone control ([1]; 10 kg/ha sprayed to soil surface, soil column): 93.3% | soil nitrate-N concentration compared with urine control ([1]; 10 kg/ha, day 60): significantly lower nitrate-N concentrations | nitrous oxide reduction compared with DCD ([1]; both at 10 kg/ha): much greater than that by DCD | inhibiting nitrate production compared with DCD ([1]; both at 10 kg/ha, day 60): much more potent than DCD
